Reference: PubChem BioAssay (NCI)
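Assay format: 96-well plates, 48-hour exposure. At the GI50, growth is halved. TGI: concentration producing complete growth inhibition.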

Tests used:
Assay in all cases: growth of human tumour cells (NCI), 48 h
786-0 renal = system: 786-0 renal
A498 renal = system: A498 renal
A549 NSCLC = system: A549 NSCLC
ACHN renal = system: ACHN renal
BT-549 breast = system: BT-549 breast
CAKI-1 renal = system: CAKI-1 renal
CCRF-CEM leukemia = system: CCRF-CEM leukemia
COLO 205 colon = system: COLO 205 colon
DU-145 prostate = system: DU-145 prostate
EKVX NSCLC = system: EKVX NSCLC
HCC-2998 colon = system: HCC-2998 colon
HCT-116 colon = system: HCT-116 colon
HCT-15 colon = system: HCT-15 colon
HL-60(TB) leukemia = system: HL-60(TB) leukemia
HOP-62 NSCLC = system: HOP-62 NSCLC
HOP-92 NSCLC = system: HOP-92 NSCLC
HS 578T breast = system: HS 578T breast
HT29 colon = system: HT29 colon
IGROV1 ovarian = system: IGROV1 ovarian
K-562 leukemia = system: K-562 leukemia
KM12 colon = system: KM12 colon
LOX IMVI melanoma = system: LOX IMVI melanoma
M14 melanoma = system: M14 melanoma
MALME-3M melanoma = system: MALME-3M melanoma
MCF7 breast = system: MCF7 breast
MDA-MB-231 breast = system: MDA-MB-231 breast
MDA-MB-435 = system: MDA-MB-435
MOLT-4 leukemia = system: MOLT-4 leukemia
NCI-H226 lung = system: NCI-H226 lung
NCI-H23 lung = system: NCI-H23 lung
NCI-H460 lung = system: NCI-H460 lung
NCI-H522 lung = system: NCI-H522 lung
NCI/ADR-RES ovarian = system: NCI/ADR-RES ovarian
OVCAR-3 ovarian = system: OVCAR-3 ovarian
OVCAR-4 ovarian = system: OVCAR-4 ovarian
OVCAR-5 ovarian = system: OVCAR-5 ovarian
OVCAR-8 ovarian = system: OVCAR-8 ovarian
PC-3 prostate = system: PC-3 prostate
RPMI-8226 leukemia = system: RPMI-8226 leukemia
RXF 393 renal = system: RXF 393 renal
SF-268 CNS = system: SF-268 CNS
SF-295 CNS = system: SF-295 CNS
SF-539 CNS = system: SF-539 CNS
SK-MEL-2 melanoma = system: SK-MEL-2 melanoma
SK-MEL-28 melanoma = system: SK-MEL-28 melanoma
SK-MEL-5 melanoma = system: SK-MEL-5 melanoma
SK-OV-3 ovarian = system: SK-OV-3 ovarian
SN12C renal = system: SN12C renal
SNB-19 CNS = system: SNB-19 CNS
SNB-75 CNS = system: SNB-75 CNS
SR leukemia = system: SR leukemia
SW-620 colon = system: SW-620 colon
T-47D breast = system: T-47D breast
TK-10 renal = system: TK-10 renal
U251 CNS = system: U251 CNS
UACC-257 melanoma = system: UACC-257 melanoma
UACC-62 melanoma = system: UACC-62 melanoma
UO-31 renal = system: UO-31 renal

For `CN(C)c1ccc(/C=C(\C#N)c2nc3ccccc3n2C)cc1`, the GI50 (786-0 renal) was 8.77 µM, the TGI (786-0 renal) was 99 µM and the GI50 (A498 renal) was 0.729 µM. For the same compound, the TGI (A498 renal) was 6.82 µM, the GI50 (A549 NSCLC) was 4.53 µM and the TGI (A549 NSCLC) was over 100 µM. The GI50 (ACHN renal) was 11.6 µM, the TGI (ACHN renal) was over 100 µM and the GI50 (BT-549 breast) was 3.4 µM. For the same compound, the TGI (BT-549 breast) was 31.2 µM, the GI50 (CAKI-1 renal) was 5.16 µM and the TGI (CAKI-1 renal) was over 90.6 µM. It also gave a GI50 (CCRF-CEM leukemia) of 3.36 µM, a TGI (CCRF-CEM leukemia) of 16 µM and a GI50 (COLO 205 colon) of 1.63 µM. It also gave a TGI (COLO 205 colon) of 9.26 µM, a GI50 (DU-145 prostate) of 2.99 µM and a TGI (DU-145 prostate) of 13.1 µM. It also gave a GI50 (EKVX NSCLC) of 8.65 µM, a TGI (EKVX NSCLC) of over 100 µM and a GI50 (HCC-2998 colon) of 4.43 µM. The TGI (HCC-2998 colon) was 27.7 µM, the GI50 (HCT-116 colon) was 1.41 µM and the TGI (HCT-116 colon) was over 100 µM. It also gave a GI50 (HCT-15 colon) of 1.29 µM, a TGI (HCT-15 colon) of over 87.6 µM and a GI50 (HL-60(TB) leukemia) of 3.77 µM. For the same compound, the TGI (HL-60(TB) leukemia) was over 31.4 µM, the GI50 (HOP-62 NSCLC) was 13.8 µM and the TGI (HOP-62 NSCLC) was over 100 µM. For the same compound, the GI50 (HOP-92 NSCLC) was 5.68 µM, the TGI (HOP-92 NSCLC) was 28.9 µM and the GI50 (HS 578T breast) was 2.84 µM. For the same compound, the TGI (HS 578T breast) was over 26.5 µM, the GI50 (HT29 colon) was 0.742 µM and the TGI (HT29 colon) was over 33.3 µM. It also gave a GI50 (IGROV1 ovarian) of 5.13 µM, a TGI (IGROV1 ovarian) of over 100 µM and a GI50 (K-562 leukemia) of 0.249 µM. It also gave a TGI (K-562 leukemia) of 10.8 µM, a GI50 (KM12 colon) of 1.59 µM and a TGI (KM12 colon) of 18.4 µM. It also gave a GI50 (LOX IMVI melanoma) of 5.68 µM, a TGI (LOX IMVI melanoma) of over 62.2 µM and a GI50 (M14 melanoma) of 2.42 µM. It also gave a TGI (M14 melanoma) of over 64.9 µM, a GI50 (MALME-3M melanoma) of 6.17 µM and a TGI (MALME-3M melanoma) of 60.6 µM. The GI50 (MCF7 breast) was 0.612 µM, the TGI (MCF7 breast) was over 76 µM and the GI50 (MDA-MB-231 breast) was 5.41 µM. For the same compound, the TGI (MDA-MB-231 breast) was over 100 µM, the GI50 (MDA-MB-435) was 0.251 µM and the TGI (MDA-MB-435) was 3.13 µM. For the same compound, the GI50 (MOLT-4 leukemia) was 7.03 µM, the TGI (MOLT-4 leukemia) was over 38 µM and the GI50 (NCI-H226 lung) was 9.22 µM. It also gave a TGI (NCI-H226 lung) of over 81.3 µM, a GI50 (NCI-H23 lung) of 4.51 µM and a TGI (NCI-H23 lung) of over 88.5 µM. The GI50 (NCI-H460 lung) was 3.2 µM, the TGI (NCI-H460 lung) was 17.9 µM and the GI50 (NCI-H522 lung) was 1.7 µM. It also gave a TGI (NCI-H522 lung) of 16 µM, a GI50 (NCI/ADR-RES ovarian) of 1.47 µM and a TGI (NCI/ADR-RES ovarian) of 11.1 µM. It also gave a GI50 (OVCAR-3 ovarian) of 1.33 µM, a TGI (OVCAR-3 ovarian) of 3.73 µM and a GI50 (OVCAR-4 ovarian) of 4.22 µM. For the same compound, the TGI (OVCAR-4 ovarian) was over 21.9 µM, the GI50 (OVCAR-5 ovarian) was 8.49 µM and the TGI (OVCAR-5 ovarian) was 49.8 µM. The GI50 (OVCAR-8 ovarian) was 4.79 µM, the TGI (OVCAR-8 ovarian) was over 72.9 µM and the GI50 (PC-3 prostate) was 3.91 µM. It also gave a TGI (PC-3 prostate) of over 48.8 µM, a GI50 (RPMI-8226 leukemia) of 2.85 µM and a TGI (RPMI-8226 leukemia) of 14.7 µM. The GI50 (RXF 393 renal) was 2.77 µM, the TGI (RXF 393 renal) was over 24.8 µM and the GI50 (SF-268 CNS) was 5.96 µM. For the same compound, the TGI (SF-268 CNS) was over 95.1 µM, the GI50 (SF-295 CNS) was 1.9 µM and the TGI (SF-295 CNS) was 16.9 µM. For the same compound, the GI50 (SF-539 CNS) was 2.24 µM, the TGI (SF-539 CNS) was 6.94 µM and the GI50 (SK-MEL-2 melanoma) was 3.9 µM. It also gave a TGI (SK-MEL-2 melanoma) of 68.5 µM, a GI50 (SK-MEL-28 melanoma) of 8.8 µM and a TGI (SK-MEL-28 melanoma) of over 78.2 µM. For the same compound, the GI50 (SK-MEL-5 melanoma) was 1.92 µM, the TGI (SK-MEL-5 melanoma) was 13.6 µM and the GI50 (SK-OV-3 ovarian) was 4.09 µM. It also gave a TGI (SK-OV-3 ovarian) of 71.3 µM, a GI50 (SN12C renal) of 11.6 µM and a TGI (SN12C renal) of over 100 µM. For the same compound, the GI50 (SNB-19 CNS) was 7.27 µM, the TGI (SNB-19 CNS) was over 100 µM and the GI50 (SNB-75 CNS) was 2.54 µM. For the same compound, the TGI (SNB-75 CNS) was over 31.3 µM, the GI50 (SR leukemia) was 0.279 µM and the TGI (SR leukemia) was over 100 µM. The GI50 (SW-620 colon) was 0.921 µM, the TGI (SW-620 colon) was over 60.1 µM and the GI50 (T-47D breast) was 3.08 µM. It also gave a TGI (T-47D breast) of 27.2 µM, a GI50 (TK-10 renal) of 3.24 µM and a TGI (TK-10 renal) of 67.9 µM. It also gave a GI50 (U251 CNS) of 3.72 µM, a TGI (U251 CNS) of over 100 µM and a GI50 (UACC-257 melanoma) of 20.2 µM. The TGI (UACC-257 melanoma) was over 100 µM, the GI50 (UACC-62 melanoma) was 2.04 µM and the TGI (UACC-62 melanoma) was 37.2 µM. It also gave a GI50 (UO-31 renal) of 6.96 µM and a TGI (UO-31 renal) of over 100 µM.
